According to patent US4613618A, “Method for treating disorders of lipid metabolism using benzene sulfonamides” (Choay S.A., priority 1981, dated 1986):
Read-outs that look alike come from different tables or passages of the source.

Experiments:
[1] = Toxicity, general statements; details: Compound No. 1 038: rats and mice, oral route; medicaments: general
aorta = test: Atherosclerosis inducing diet: microscopic observations (aorta, histology); type: in vivo, Wistar female rats; design: HISTOLOGICAL QUOTATION, percentage reduction with respect to the diet controls / NUMBER OF ATHEROSCLEROTIC AREAS, percentage reduction with respect to the diet controls: concentration or dose not given beside the values; details: for NUMBER OF ATHEROSCLEROTIC AREAS: TEM-diet 160; for HISTOLOGICAL QUOTATION, score with respect to clofibrate / NUMBER OF ATHEROSCLEROTIC AREAS, score with respect to clofibrate: clofibrate counted as 1; for HISTOLOGICAL QUOTATION, percentage reduction with respect to the diet controls / HISTOLOGICAL QUOTATION: severity of the lesions; for HISTOLOGICAL QUOTATION: TEM-diet 132
Experimental: (§1) In a second experimental series, tha activity of certain products according to the invention were tested on animals which had received an atherosclerosis inducing diet for a long period.
(§2) The test was carried out on Wistar female rats, of weight about 160-180 g.
(§3) The animals received food coming from the National Nutrition plant of Villemoisson-sur-Orge, France, and denoted by the reference UAR AO3, enriched in cholesterol (0.5%) and in cholic acid (0.5%).
(§4) After 15 days of the atherosclerosis inducing diet and whilst maintaining the animals on an atherosclerosis inducing diet, they were given orally for 4 days 250.000 iu/kg of vitamine D2 marketed under the name Sterogyl 25H, in solution in olive oil.
(§5) Then the products under study were administered for 4 weeks, from the end of the administration of the lesion-inducing agent.
(§6) At the end of the study, all the animals still alive were sacrificed, and various organs were removed, particularly the aorta, for histological study of the latter. Two criteria were examined: the number of atherosclerosis areas and the severity of the lesions.
Calculation of the figures was carried out in the following manner:
as regards the severity of the lesions, a quotation ranging from 0 for absence of a lesion to 5+ for the severest lesions was made, and this for each type of alteration concerned (increase of interlamellar spaces, interruption of elastic laminae, thickening of the elastic laminae, calcium deposition, mucopolysaccharide deposition); then all of the results per batch of animals were added;
as regards the number of atherosclerosis areas, by counting the latter and adding all the figures obtained per batch of animals.
(§7) Then the pecentage reduction with respect to the diet controls and the score were calculated, that is to say the ratio of the intensity of the activity of the product tested with respect to that of the activity of clofibrate, reckoned as 1.
Table XI gives the microscopic results with histological quotation as regards the severity of the lesions, and the number of atherosclerotic areas.

[2] = Subacute toxicity of compound No. 1 038; type: in vivo; details: about one month; 150,500 and 1 000 mg/kg
mice = test: Toxicity of Compound No. 1 038, oral route, mice; type: in vivo
Description: (§8) For Compound No. 1 038, the study of the toxicity has been carried out on rats and on mice to which the product has been administered by the oral route.
(§9) The results (expressed in g/kg) relative to LD50, LD0, and LD100 are gathered in the following table.

[3] = Toxicity of Compound No. 1 038, oral route, mice; type: in vivo; details: mouse, in vivo, po
Description: as §8, §9

atherosclerosis lesions = test: Atherosclerosis inducing diet: macroscopic exams (affected animals); type: in vivo, Wistar female rats; details: for Score with respect to the reference clofibrate (animals afflicted with lesions): clofibrate counted as 1; for AFFECTED ANIMALS %: macroscopic exams, TEM-diet 100
Experimental: as §1, §2, §3, §4, §5, §6, §7
Table X gives the results of macroscopic examinations:
(a) in % decrease in animals afflicted with lesions;
(b) as score with respect to the reference clofibrate, of which the score was counted as 1.

[4] = test system: atherosclerosis inducing diet (cholesterol, cholic acid, vitamine D2); test: Atherosclerosis inducing diet: biochemical exams; type: in vivo, Wistar female rats; design: CHOLESTEROL T, % reduction with respect to the control diet / CHOLESTEROL HDL, % with respect to the control diet / CHOLESTEROL LDL, % reduction with respect to the control diet / TRIGLYCERIDES, % reduction with respect to the control diet: concentration or dose not given beside the values; details: for TRIGLYCERIDES, % reduction with respect to the control diet / CHOLESTEROL HDL, % with respect to the control diet / CHOLESTEROL LDL, % reduction with respect to the control diet / CHOLESTEROL T, % reduction with respect to the control diet: 4 weeks administration; for CHOLESTEROL HDL, Score with respect to clofibrate / CHOLESTEROL LDL, Score with respect to clofibrate / CHOLESTEROL T, Score with respect to clofibrate / TRIGLYCERIDES, Score with respect to clofibrate: clofibrate counted as 1; for CHOLESTEROL T, % reduction with respect to the control diet: total cholesterol
Experimental: as §1, §2, §3, §4, §5
At the end of the study, biochemical examinations were carried out on all the animals [total cholesterol, high density lipoprotein (HDL) and cholesterol low density lipoprotein (LDL), and triglycerides].
as §7
Table IX gives the detailed results of the biochemical examination:
(a) in % reduction with respect to the control die;
(b) as score, with respect to the reference product, clofibrate, the latter being counted as 1.

[5] = Toxicity of Compound No. 1 038, oral route, rats; type: in vivo; details: rat, in vivo, po
Description: as §8, §9

rats = test: Toxicity of Compound No. 1 038, oral route, rats; type: in vivo
Description: as §8, §9

[6] = test system: hyperlipidemia caused by the administration of TRITON; test: Triton test: lipid regulating activity in hyperlipidemia caused by TRITON W. R.; type: in vivo, WISTAR male rats; details: Rattus norvegicus, po, 250 mg/kg orally, 6 hours and/or 24 hours
Experimental: In a first series of experiments, products were tested on a hyperlipidemia caused by the administration of TRITON according to the following procedure.
The tests were carried out on groups of five WISTAR male rats whose weight varied from 150 to 175 g.
The tested products were administered, orally in the form of a 3% aqueous solution of tragacanth gum in the ratio of 1 ml per 100 g of body weight, in an amount corresponding to 250 mg/kg.
To carry out these tests, a hyperlipidemia was caused in the animals, by means of the product marketed by the ROHM and HAAS Company under the name TRITON W. R.
On this hyperlipidemia the effects obtained by the administration of the active substances according to the invention, are observed.
The tests were carried out as follows:
the rats were fasted for 18 hours, then the TRITON W. R. was administered intravenously in 10% aqueous solution in the proportion of 200 mg/kg;
simultaneously 250 mg/kg of the product under test was administered orally;
6 hours and/or 24 hours later, blood assays were carried out conventionally.
to the total cholesterol, […]

[7] = Acute toxicity, intraperitoneal, mice; details: mouse, in vivo, ip, intraperitoneally, read-out: lethal dose 50
Experimental: The acute toxicity is expressed by the lethal dose 50, that is to say the dose resulting in the death of 50% of the animals.
This study was carried out on mice, to which the products under test were administered intraperitoneally.
It was established as follows, for the following substances: […]

[8] = read-out: Total cholesterol, % of decrease with respect to Triton control
[9] = read-out: Total lipids, % of decrease with respect to Triton control
[10] = read-out: Triglycerides, % of decrease with respect to Triton control

SMILES	NUMBER OF ATHEROSCLEROTIC AREAS, percentage reduction with respect to the diet controls (aorta)	NUMBER OF ATHEROSCLEROTIC AREAS (aorta)	HISTOLOGICAL QUOTATION, score with respect to clofibrate (aorta)	NUMBER OF ATHEROSCLEROTIC AREAS, score with respect to clofibrate (aorta)	HISTOLOGICAL QUOTATION, percentage reduction with respect to the diet controls (aorta)	HISTOLOGICAL QUOTATION (aorta)	% decrease in animals afflicted with lesions (atherosclerosis lesions)	Score with respect to the reference clofibrate (animals afflicted with lesions) (atherosclerosis lesions)	AFFECTED ANIMALS % (atherosclerosis lesions)	TRIGLYCERIDES, % reduction with respect to the control diet [4]	CHOLESTEROL HDL, % with respect to the control diet [4]	CHOLESTEROL LDL, % reduction with respect to the control diet [4]	CHOLESTEROL HDL, Score with respect to clofibrate [4]	CHOLESTEROL LDL, Score with respect to clofibrate [4]	CHOLESTEROL T, Score with respect to clofibrate [4]	TRIGLYCERIDES, Score with respect to clofibrate [4]	change in vivo at 250 mg/kg [6, 8]	change in vivo at 250 mg/kg [6, 9]	change in vivo at 250 mg/kg [6, 10]	LD50 [7]	also measured
O=C(O)CCCNS(=O)(=O)c1cccc(C(F)(F)F)c1 [Compound No. 1038, (trifluoromethyl-3 benzenesulfonylamino)-4 butyric acid]	78,18%	35%	1,06	1,42	66,31%	44%	33,33%	1,83	66,67%	-20,69%	+83,33%	-58,26%	0,80	1,05	1,06	0,86	–	–	–	–	toxicity (in words) [1]: presents no toxicity; therapeutic index [2]: very satisfactory; LD0 (mice; female): 5000 mg/kg; LD100 (mice; female): 9000 mg/kg; LD0 (mice; male): 4000 mg/kg; LD100 (mice; male): 9000 mg/kg; LD50 ([3]; female): 6600 mg/kg; LD50 ([3]; male): 6000 mg/kg; CHOLESTEROL T, % reduction with respect to the control diet [4]: -51,88%; LD50 ([5]; female): 15500 mg/kg; LD50 ([5]; male): 13000 mg/kg; LD0 (rats; female): 5000 mg/kg; LD100 (rats; female): > 20000 mg/kg; LD0 (rats; male): 5000 mg/kg; LD100 (rats; male): 20000 mg/kg
CCOC(=O)CCCNS(=O)(=O)c1cccc([N+](=O)[O-])c1 [compound 679]	48,57%	82%	0,64	0,88	39,97%	79%	7,14%	0,39	92,86%	0%	+58,33%	-60,14%	0,56	1,09	1,09	0	-30%	-61%	-34%	–	CHOLESTEROL T, % reduction with respect to the control diet [4]: -53,13%
COc1cc([N+](=O)[O-])c(Cl)cc1S(=O)(=O)NCCCC(=O)O [compound 387]	–	–	–	–	–	–	–	–	–	–	–	–	–	–	–	–	–	-39%	-90%	3070 mg/kg	–
CCOC(=O)CCCCCCCCCCNS(=O)(=O)c1ccc(OC)cc1 [compound 729]	–	–	–	–	–	–	–	–	–	–	–	–	–	–	–	–	–	–	-17%	> 6400 mg/kg	–
O=C(O)CCCCCNS(=O)(=O)c1cccc([N+](=O)[O-])c1 [compound 675]	–	–	–	–	–	–	–	–	–	–	–	–	–	–	–	–	-19%	-45%	-27%	930 mg/kg	–
CCOC(=O)C(C)(C)Oc1ccc(Cl)cc1 [CLOFIBRATE, clofibrate, reference compound]	54,93%	72%	1,00	1,00	62,83%	49%	18,18%	1,00	81,82%	-24,14%	+104,17%	-55,37%	1,00	1,00	1,00	1,00	–	–	–	–	CHOLESTEROL T, % reduction with respect to the control diet [4]: -48,75%
CCOC(=O)CCCCCCCCCCNS(=O)(=O)c1cccc([N+](=O)[O-])c1 [compound 676]	–	–	–	–	–	–	–	–	–	–	–	–	–	–	–	–	-10%	-43%	-24%	> 6400 mg/kg	–
COc1cc([N+](=O)[O-])c(Cl)cc1S(=O)(=O)NCCCCCC(=O)O [compound 362]	–	–	–	–	–	–	–	–	–	–	–	–	–	–	–	–	-10%	-39%	-88%	1760 mg/kg	–
CCOC(=O)CCCCCCCCCCNS(=O)(=O)c1cc(Cl)c([N+](=O)[O-])cc1OC [compound 502]	–	–	–	–	–	–	–	–	–	–	–	–	–	–	–	–	-16%	-45%	-32%	3070 mg/kg	–
Nc1ccc(S(=O)(=O)NCCCCCC(=O)O)cc1 [compound 665]	–	–	–	–	–	–	–	–	–	–	–	–	–	–	–	–	-15%	-30%	-20%	> 6400 mg/kg	–
